Data on two molecules can be found in publication PMC10341805, “Positive Allosteric Modulator of SERCA Pump NDC-1173 Exerts Beneficial Effects in Mouse Model of Alzheimer’s Disease” (International Journal of Molecular Sciences, 2023).

In series [1] the test system is binding immunoglobulin protein (BiP/Grp78). Put plainly: qPCR of ER-stress marker BiP mRNA in hippocampus of treated APP/PS1 mice. The class given is in vivo, mouse. Conditions: 30 mg/kg oral gavage 3 times per week for 8 weeks, vs untreated APP/PS1, normalized to Cyclophilin, mean ± SD. The text has this: (§1) As previously established in Alzheimer’s disease (AD) research, ER stress is an apparent consequence of protein misfolding within AD pathophysiology. In response to this ER stress, cells activate a group of signaling pathways known as the unfolded protein response (UPR) that aims to restore ER function so the cell may survive. […] We examined the mRNA expression levels of these ER-stress markers in the hippocampus of APP/PS1 mice treated with NUCC-0226446, NUCC-0226614, NUCC-0226646, and NDC-1173 compounds compared to untreated APP/PS1 mice utilizing real-time quantitative PCR using primer sets indicated in Table 2. There was significant reduction (p = 0.0002) in the ER-stress marker, Chop, after treatment with NDC-1173 compared to untreated APP/PS1 mice (n = 9–11) (Figure 4, Table 3). […]
(§2) At 10 months of age, mice were rapidly decapitated, and the entire hippocampus was dissected and snap-frozen using liquid nitrogen. […] Total RNA concentration and purity was then measured using a NanoDrop spectrophotometer. […] Data were exported from the RT PCR machine into an excel worksheet. %CVs were calculated between triplicate well CT values to rule out technical outliers. […] Relative expression was then analyzed following the comparative CT method ( 2^−∆∆CT method).

Series [2] has as its system activating transcription factor 6 (ATF6). The series is described as follows: qPCR of ER-stress marker ATF6 mRNA in hippocampus of treated APP/PS1 mice. It is filed as in vivo, mouse. Conditions: 30 mg/kg oral gavage 3 times per week for 8 weeks, vs untreated APP/PS1, normalized to Cyclophilin, mean ± SD.
From the text: as §1, §2

For another series, the system named is ryanodine receptor. The series is described as follows: Selectivity test on ryanodine receptor. The class given is biochemical. Conditions: selectivity for SERCA.
Series [3] has as its system X-box binding protein 1 spliced variant (XBP1spl). Put plainly: qPCR of ER-stress marker XBP1spl mRNA in hippocampus of treated APP/PS1 mice. The class given is in vivo, mouse. The note with it: 30 mg/kg oral gavage 3 times per week for 8 weeks, vs untreated APP/PS1, normalized to Cyclophilin, mean ± SD.
From the text: as §1, §2

In series [4] the test system is C/EBP homologous protein (CHOP/Ddit3). The series is described as follows: qPCR of ER-stress marker CHOP mRNA in hippocampus of treated APP/PS1 mice. Conditions: 30 mg/kg oral gavage 3 times per week for 8 weeks, vs untreated APP/PS1, normalized to Cyclophilin, mean ± SD. It is filed as in vivo, mouse.
From the text: as §1, §2

A further series relates to L-type Ca channel. Put plainly: Selectivity test on L-type Ca channel. The class given is biochemical. The note with it: selectivity for SERCA.
The test system of series [5] is APP/PS1 mice. The series is described as follows: Morris water maze (training and probe trial). It is filed as in vivo, mouse. Conditions: 30 mg/kg oral gavage 3 times per week for 8 weeks. Here is the method: (§3) To evaluate the effects of NUCC-0226446, NUCC-0226614, NUCC-0226646, and NDC-1173 on cognitive readouts in the AD mouse model, we treated APP/PS1 male and female mice with vehicle (10%DMSO/10%Tween80 in water) or SERCA PAMs (30 mg/kg) via oral gavage three times per week for 8 weeks, starting at 6 months of age. Open-field, object-recognition, and water maze assays were performed following treatment with 8-month-old mice. To test for locomotor activity changes in response to SERCA PAMs treatment in APP/PS1, we used the open-field test. The results obtained with NUCC-0226446, NUCC-0226614, NUCC-0226646 are shown in Supplementary Figure S1 and results with NDC-1173 are shown in Figure 3. […] There was a significant sex difference in the open field (F(1,27) = […]), but there was no sex by treatment interaction found.
(§4) Vehicle or NDC 1173 was administered via oral gavage 3 times per week for 8 weeks at a dose of 30 mg/kg in a vehicle containing 10%DMSO/10%Tween80 in water at a 3 mg/mL concentration. […]
The water maze consisted of 3 phases pre-training, training, and probe trial. […] Ethovision XT (Version 15) tracking software recorded the latency to the platform. […] During the probe trial, the platform was not present within the pool and the search pattern of the mouse is measured. […]

The test system of series [6] is APP/PS1 mice. Put plainly: Tolerability during 8 weeks of administration. The class given is in vivo, mouse. Conditions: 30 mg/kg oral gavage 3 times per week for 8 weeks. The procedure:
Vehicle or NDC 1173 was administered via oral gavage 3 times per week for 8 weeks at a dose of 30 mg/kg in a vehicle containing 10%DMSO/10%Tween80 in water at a 3 mg/mL concentration. The dose was chosen so that the drug would be on board while the first signs of amyloid plaques appear (6 mos) and before the time the disease had fully progressed. We chose to administer the drug 3 times per week to cause minimal stress to the mouse.

The test system of series [7] is APP/PS1 mice. Put plainly: Object recognition task. It is filed as in vivo, mouse. Conditions: 30 mg/kg oral gavage 3 times per week for 8 weeks, test 24 h after training. Here is the method:
as §3, §4
The object recognition task (OR) was performed as previously described. […] Interaction was determined by the length of time the mouse’s nose was within 1 cm of a tightly drawn zone around each object. […] Time spent interacting with each object was then measured using Ethovision XT software (Version 15). […]

Series [8] relates to activating transcription factor 4 (ATF4). The series is described as follows: qPCR of ER-stress marker ATF4 mRNA in hippocampus of treated APP/PS1 mice. It is filed as in vivo, mouse. The note with it: 30 mg/kg oral gavage 3 times per week for 8 weeks, vs untreated APP/PS1, normalized to Cyclophilin, mean ± SD.
From the text: as §1, §2

A further series has as its system Na/K-ATPase. The series is described as follows: Selectivity test on Na/K-ATPase. It is filed as biochemical. The note with it: selectivity for SERCA.
Series [9] in a line: Pharmacokinetics in CD-1 mice (plasma and brain). It is filed as in vivo, mouse. Here is the method:
Pharmacokinetics of NDC-1173 were assessed in CD-1 mice. The compound was formulated at 1 mg/mL in DMSO/Tween 80/water (10/10/80, vol/vol/vol) and dosed at 2 mg/kg intravenously (i.v.) or 10 mg/kg via oral gavage (P.O.) in triplicate. Blood was drawn at 0.25 h, 0.5 h, 1 h, 2 h, 4 h, 8 h, and 24 h into EDTA-containing tubes, and plasma was harvested via centrifugation. Plasma (10 μL) containing 50% acetonitrile in water (5 μL) was added to 200 µL of ACN containing an internal standard. The samples were vortexed for 30 s. After centrifugation at 4 °C and 4000 rpm for 15 min, the supernatant was diluted 3 times with water. Then, 20 µL of diluted supernatant was injected into the LC/MS/MS system for quantitative analysis. The samples were injected onto an Agilent ZORBAX XDB-Phenyl 5 μ column (50 × 2.10 mm). Mobile Phase A was water with 0.1% formic acid. Mobile Phase B was acetonitrile with 0.1% formic acid. Separation was achieved using a gradient of 70% A/30% B to 0% A/100% B over 2.10 min. A Shimadzu LCMS-8050 equipped with a turbo ion spray source was used for all analytical measurements. Data were fit using WinNonLin https://www.certara.com/software/phoenix-winnonlin/, accessed on 1 May 2023.

Series [10] has as its system APP/PS1 mice. The series is described as follows: Ca2+ imaging in APP/PS1 mice. Details: species or system mouse.
The mark [11] stands for this setting: CD-1, mouse, plasma, oral administration 10 mg/kg.

The structures appear in SMILES notation. Where two headings read alike, the source gives them in different places.

Take `COc1c(C)cccc1C(=O)Nc1cccc2ccc(C)nc12` [NDC-1173, 2-methoxy-3-methyl-N-(2-methylquinolin-8-yl)benzamide]: the “Fold-change of BiP mRNA expression” value in series [1] worked out at 0.74 ± 0.401. Besides, the “Fold-change of ATF6 mRNA expression” value in [2] is recorded as 0.79 ± 0.327. The “Functional effect on ryanodine receptor” value with ryanodine receptor is “no significant functional effects”. Further, the “Fold-change of XBP1spl mRNA expression” value in series [3] is 0.72 ± 0.577. Besides, the “Fold-change of CHOP mRNA expression” value in series [4] amounted to 0.52 ± 0.195. Also, the “Functional effect on L-type Ca channel” value in the series with L-type Ca channel was “no significant functional effects”. In the series with APP/PS1 mice [5], the “Spatial learning in water maze training (4 days) vs vehicle” value is “did not have better performance in spatial learning”. Further, the “Spatial memory in water maze probe trial (time in target quadrant) vs vehicle” value with APP/PS1 mice [5] (24 h after last training) is given as “spent more time in the quadrant where the escape platform was located”. Further, in the series on APP/PS1 mice [6], the “Adverse effects or weight loss” value is listed as “no adverse effects or weight loss”. In the series with APP/PS1 mice [7], the “Object memory (time spent with novel object) vs vehicle” value is reported as “significant increase in time spent with the novel object”. In addition, in [8], the “Fold-change of ATF4 mRNA expression” value is recorded as 1.17 ± 0.496. The “Functional effect on Na/K-ATPase” value in the series with Na/K-ATPase is recorded as “no significant functional effects”. Also, the half-life in [9] (CD-1, mouse, brain, oral administration 10 mg/kg, read-out: Brain t1/2 (converted)) was 1.1 h; in [9] (CD-1, mouse, plasma, oral administration 10 mg/kg, read-out: Plasma t1/2 (converted)), 0.9 h. Besides, in series [9] (CD-1, mouse, brain/plasma, oral administration 10 mg/kg, read-out: Brain/plasma ratio), the Kp was 2.8. Further, in [9] (setting [11]), the AUC came to 375 ng·h/mL. For the same molecule, the highest level in series [9] (setting [11]) (Cmax) was 1250 nM. Moreover, in series [9] (CD-1, mouse, plasma, oral, 10 mg/kg P.O. vs 2 mg/kg i.v.), the bioavailability turned out to be 25.6%. Besides, in [9] (oral administration 10 mg/kg), the “Brain concentration at 2 h” value was determined as 2500 nM.
Take `Cc1ccc2cccc(NC(=O)c3ccc(OC(C)C)cc3)c2n1` [CDN-1163]: the “Effect on Ca2+ homeostasis” value in the series on APP/PS1 mice [10] was “restores normal Ca^2+ homeostasis”.
